Source: patent US10058092B2, “Apparatus and method for controlled release of botanical fumigant pesticides” (priority 2012, dated 2018)
“And” between values parts separate entries of the source, which are not always exact repeats. Equal entries are not always repeated.

Tests used:
[1] = Headspace volatilization of secondary metabolites by GCMS; type: physicochemical; details: share of total peak area
Experimental: In this study, a liquid fumigant pesticide formulation was prepared as follows: • (1) Base formula: rosemary oil (5 ml) • (2) Enhancement formula: rosemary oil high quality (0.5 ml); clove oil (0.05 ml); peppermint oil (0.075 ml) • (3) Carrier solvent: isopropyl alcohol (6 ml); isopropyl myristate (0.06 ml). Blending: • 3. The required amounts of base formula ingredients were drawn from individual stocks of chemicals via a laboratory pipette and were transferred into a 40 ml GC glass vial (2.5 cm diameter by 10 cm length) with a silicon septa. The tall vial was used to minimize surface area of liquid that is exposed to the air during preparation. The chemicals were added quickly (less than 10 second to transfer each chemical) in order to minimize exposure to air. Following the same instruction, the enhancement formula was prepared and added to the same vial. • 4. The carrier solvent was then poured over the base formula and enhancement formula inside the vial. The vial was closed immediately after the solvent was added. The base formula, enhancement formula and carrier solvent were mixed using a lab shaker for 15 seconds.
A sub-sample of the fumigant pesticide composition (0.5 ml) was placed inside a 1 ml GC vial. Three commercial samples of rosemary oil was also placed inside three separate 1 mL GC vials. Headspace volatilization of secondary metabolites from these four samples were compared using a gas chromatograph mass spectrometer (GCMS). The GCMS was programmed to only collect samples from the headspace above the liquid mixture of the chemicals in the vials. […] The GCMS was a Varian 3900 system with a Saturn 2100T ion trap mass-selective detector (Varian Inc., Walnut Creek, Calif.). The inventors used a WCOT fused silica 30 m Å˜0.25 mm i.d. column with a CP-Sil 8 CB low bleed MS coating (Varian Inc.), a 1 μL injection volume and pure helium as the carrier at 1.0 ml min-1. The temperature program used was 80° C. for 0.5 min, an increase of 8.0 $ Cmin-1 for 8.0 min, followed by an increase of 50° C. min-1 for 3.2 min. Cinnamic alcohol (Sigma, St Louis, Mo., USA) was used as an internal standard.

[2] = Volatilization monitoring by ultra-fast gas chromatograph inside empty moving box; type: physicochemical; details: from fumigant pesticide composition prototype, empty medium size box, 60-150 min and 23 h after closing
Experimental: The volatilization of the prototype of the fumigant pesticide composition was monitored inside empty moving boxes. […] Ten mL of the fumigant pesticide composition prototype was placed inside a 40 mL GC vial.
Volatile monitoring was performed at two steps. Step one started 60 minutes after the box was closed and volatile samples were collected every 5-minutes for 90 minutes. The second step started 23 hours after the box was closed and samples were collected every 5-minutes for 50 minutes.

[3] = Commercial rosemary oil sample one
[4] = Commercial rosemary oil sample three
[5] = Commercial rosemary oil sample two
[6] = Pesticide fumigant formula of the present invention (0.5 ml in 1 ml GC vial)

| Compound | % of secondary metabolite in headspace [1, 3] [%] | % of secondary metabolite in headspace [1, 4] | % of secondary metabolite in headspace [1, 5] [%] | % of secondary metabolite in headspace [1, 6] [%] | pattern of volatilization [2] |
| --- | --- | --- | --- | --- | --- |
| CC12CCC(CC1)C(C)(C)O2 [1,8-Cineole] | 57.05 | 36.95% | 21.53 | 46.78 | Unstable pattern with greater fluctuation at the end of trial |
| CC1=CCC2C(C1)C2(C)C (centres unmarked) [3-Carene] | 1.88 |  |  |  |  |
| CC1(C)C2CCC1(C)C(O)C2 (centres unmarked) [Borneol] | 4.06 | 1.68% | 3.60 |  |  |
| CC(=O)OC1CC2CCC1(C)C2(C)C (centres unmarked) [Bornyl Acetate] | 2.70 | 2.54% |  |  |  |
| C=C1C2CCC(C2)C1(C)C (centres unmarked) [Camphene] | 4.26 | 10.06% and 4.72% | 13.04 | 9.98 | Fluctuation pattern with increasing levels at the tail end |
| CC12CCC(CC1=O)C2(C)C (centres unmarked) [Camphor] | 11.89 | 18.60% | 25.50 | 23.30 | Fluctuation pattern with increasing levels at the tail end |
| C=C(C)[C@H]1CC=C(C)CC1 [D-Limonene] |  |  | 4.67 |  | Fluctuation pattern with increasing levels at the tail end |
| C=CCc1ccc(O)c(OC)c1 [Eugenol] |  |  |  |  | Unstable pattern with greater fluctuation at the end of trial |
| CC1(C)[C@@H]2CC[C@@]1(C)[C@H](O)C2 [Isoborneol] | 1.74 |  | 2.28 |  |  |
| CC(=O)OC(C)C [Isopropyl acetate] |  |  | 3.25 |  |  |
| CC1=CC[C@@H](C(C)(C)O)CC1 [a-Terpineol] |  | 2.48% |  |  |  |
| CC1=CCC2CC1C2(C)C (centres unmarked) [a-pinene] | 6.53 | 14.73% | 18.15 | 14.58 | Complete inhibition pattern |
| C=C1CCC2CC1C2(C)C (centres unmarked) [b-pinene] | 8.00 | 6.22% | 5.43 | 5.35 | Complete inhibition pattern |
| CC(C)=CCC/C(C)=C/CO [geraniol] |  |  |  |  | Steady compounds |
| C=CC(C)(O)CCC=C(C)C (centres unmarked) [linalool] |  |  |  |  | Steady compounds |
| Cc1ccc(C(C)C)cc1 [p-Cymene] | 1.89 | 2.01% | 2.56 |  | Fluctuation pattern with increasing levels at the tail end |
